Among the data in ChEMBL document CHEMBL4052762, “Synthesis and biological evaluation of pyrrole-based chalcones as CYP1 enzyme inhibitors, for possible prevention of cancer and overcoming cisplatin resistance” (Bioorg Med Chem Lett, 2017) are Activity and IC50 values, retold here.

SMILES strings stand for the structures. pIC50: −log10 of the molar value.

Data set [1] concerns the target T1, Aryl hydrocarbon receptor (Homo sapiens, UniProt P35869).
T1 sequence (P35869 whole entry): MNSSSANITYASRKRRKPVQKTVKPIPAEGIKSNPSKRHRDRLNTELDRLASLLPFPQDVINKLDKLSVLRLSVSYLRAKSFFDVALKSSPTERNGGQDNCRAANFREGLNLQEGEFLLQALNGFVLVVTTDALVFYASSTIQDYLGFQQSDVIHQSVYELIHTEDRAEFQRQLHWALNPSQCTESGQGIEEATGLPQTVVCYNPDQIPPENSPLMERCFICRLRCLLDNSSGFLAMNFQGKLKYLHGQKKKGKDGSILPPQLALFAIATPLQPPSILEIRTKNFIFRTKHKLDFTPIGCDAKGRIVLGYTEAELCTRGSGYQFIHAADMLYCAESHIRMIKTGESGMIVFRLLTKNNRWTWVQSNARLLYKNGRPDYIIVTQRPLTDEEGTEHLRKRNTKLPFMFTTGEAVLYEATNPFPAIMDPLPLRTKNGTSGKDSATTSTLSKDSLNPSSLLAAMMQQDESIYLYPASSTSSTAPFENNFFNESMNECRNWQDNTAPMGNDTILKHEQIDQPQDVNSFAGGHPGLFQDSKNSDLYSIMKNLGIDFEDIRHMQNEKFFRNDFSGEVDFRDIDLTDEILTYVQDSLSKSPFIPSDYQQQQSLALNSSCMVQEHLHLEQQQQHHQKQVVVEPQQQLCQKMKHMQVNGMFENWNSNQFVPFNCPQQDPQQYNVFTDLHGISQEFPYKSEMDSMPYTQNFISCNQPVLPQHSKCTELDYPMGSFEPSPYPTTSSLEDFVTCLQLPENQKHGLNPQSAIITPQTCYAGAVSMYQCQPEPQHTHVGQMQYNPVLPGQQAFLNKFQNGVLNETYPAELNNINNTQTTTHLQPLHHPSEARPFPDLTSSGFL
Nature of the data set: Antagonist activity at human AhR expressed in Saccharomyces cerevisiae W303-1A (ATCC 208352) transformed with an episomal plasmid containing a minimal CYC1 promoter, with a concatemer of five XRE enhancer sequences, linked to eGFP reporter gene and co-expressing ARNT assessed as inhibition of B[a]P agonist induced XRE-driven eGFP expression by measuring eGFP units at 10 uM after 18 hrs by …. A general note: In a reporter assay the amount or activity of a reporter protein is the signal.

In data set [2] the target is T2, Cytochrome P450 1B1 (Homo sapiens, UniProt Q16678).
T2 sequence (Q16678 whole entry): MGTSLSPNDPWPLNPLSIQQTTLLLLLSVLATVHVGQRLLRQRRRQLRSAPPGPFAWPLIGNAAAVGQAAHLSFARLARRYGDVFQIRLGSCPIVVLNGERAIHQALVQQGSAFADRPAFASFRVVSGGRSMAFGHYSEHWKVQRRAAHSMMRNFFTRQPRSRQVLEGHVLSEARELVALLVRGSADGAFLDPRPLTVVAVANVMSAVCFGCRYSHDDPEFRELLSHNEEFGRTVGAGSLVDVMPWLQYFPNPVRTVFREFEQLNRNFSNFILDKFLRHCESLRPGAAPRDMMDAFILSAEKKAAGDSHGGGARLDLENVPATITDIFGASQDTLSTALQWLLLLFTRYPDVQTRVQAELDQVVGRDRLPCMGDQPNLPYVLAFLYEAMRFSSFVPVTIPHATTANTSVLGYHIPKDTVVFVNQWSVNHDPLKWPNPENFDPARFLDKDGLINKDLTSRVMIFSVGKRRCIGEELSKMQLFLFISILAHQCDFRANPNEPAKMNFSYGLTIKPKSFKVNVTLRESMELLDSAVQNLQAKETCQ
Nature of the data set: Inhibition of human CYP1B1 bound to yeast microsomal membrane using 7-ethoxyresorufin as substrate after 10 mins by fluorescence assay.

The target of data set [3] is T3, Cytochrome P450 1A2 (Homo sapiens, UniProt P05177).
T3 sequence (P05177 whole entry): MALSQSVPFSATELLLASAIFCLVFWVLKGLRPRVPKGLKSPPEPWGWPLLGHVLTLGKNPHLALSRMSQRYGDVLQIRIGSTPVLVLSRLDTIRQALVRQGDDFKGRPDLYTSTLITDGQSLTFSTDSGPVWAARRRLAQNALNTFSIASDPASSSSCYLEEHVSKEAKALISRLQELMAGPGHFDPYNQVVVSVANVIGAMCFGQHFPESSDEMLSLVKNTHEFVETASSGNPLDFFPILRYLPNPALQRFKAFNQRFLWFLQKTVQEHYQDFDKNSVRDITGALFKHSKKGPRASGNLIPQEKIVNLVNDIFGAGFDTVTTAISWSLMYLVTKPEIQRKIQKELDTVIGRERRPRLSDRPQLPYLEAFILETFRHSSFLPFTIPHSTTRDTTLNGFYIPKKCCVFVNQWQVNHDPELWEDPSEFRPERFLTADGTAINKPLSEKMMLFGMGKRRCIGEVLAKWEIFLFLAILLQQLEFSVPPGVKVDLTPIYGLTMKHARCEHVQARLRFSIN
Nature of the data set: Inhibition of human CYP1A2 bound to yeast microsomal membrane using 3-cyano-7-ethoxycoumarin as substrate after 10 mins by fluorescence assay.

Another data set has as its target Cytochrome P450 2D6 (Homo sapiens, UniProt P10635). As to the kind of experiment: Inhibition of human CYP2D6 bound to yeast microsomal membrane using 7-ethoxy-methyloxy-3-cyanocoumarin as substrate after 10 mins by fluorescence assay. The data set is classed as ADME.
The next data set has as its target Cytochrome P450 2C9 (Homo sapiens, UniProt P11712). As to the kind of experiment: Inhibition of human CYP2C9 bound to yeast microsomal membrane using 3-cyano-7-ethoxycoumarin as substrate after 10 mins by fluorescence assay. It is filed as ADME.
A further data set concerns the target T4, Cytochrome P450 1A1 (Homo sapiens, UniProt P04798).
T4 sequence (P04798 whole entry): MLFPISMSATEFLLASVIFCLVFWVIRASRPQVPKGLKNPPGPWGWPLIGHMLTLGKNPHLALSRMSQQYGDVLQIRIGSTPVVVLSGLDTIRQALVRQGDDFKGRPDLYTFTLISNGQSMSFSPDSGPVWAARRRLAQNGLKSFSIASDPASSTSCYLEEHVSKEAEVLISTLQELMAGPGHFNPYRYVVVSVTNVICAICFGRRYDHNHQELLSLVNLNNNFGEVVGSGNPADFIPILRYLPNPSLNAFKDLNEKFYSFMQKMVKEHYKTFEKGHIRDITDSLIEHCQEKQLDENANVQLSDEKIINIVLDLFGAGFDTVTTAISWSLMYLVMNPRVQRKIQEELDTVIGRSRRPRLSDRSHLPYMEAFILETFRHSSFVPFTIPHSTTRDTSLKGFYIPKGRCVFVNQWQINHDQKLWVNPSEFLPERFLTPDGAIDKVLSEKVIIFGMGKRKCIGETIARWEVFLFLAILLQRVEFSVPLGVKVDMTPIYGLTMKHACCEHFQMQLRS
As to the kind of experiment: Inhibition of human CYP1A1 expressed in HEK293 cells using fluorogenic substrate 7-ethoxyresorufin as substrate preincubated for 30 mins followed by substrate addition measured for 60 mins by fluorescence assay. It is filed as cell-based.

Data set [4] concerns the target T2, Cytochrome P450 1B1. Nature of the data set: Inhibition of human CYP1B1 expressed in HEK293 cells using fluorogenic 7-ethoxyresorufin as substrate preincubated for 30 mins followed by substrate addition measured for 60 mins by fluorescence assay. It is filed as cell-based.
Data set [5] addresses T3, Cytochrome P450 1A2. As to the kind of experiment: Inhibition of human CYP1A2 expressed in HEK293 cells using fluorogenic 3-cyano-7-ethoxycoumarin as substrate preincubated for 30 mins followed by substrate addition measured for 60 mins by fluorescence assay. The data set is classed as cell-based.
The target in the next data set is Cytochrome P450 3A4 (Homo sapiens, UniProt P08684). As to the kind of experiment: Inhibition of human CYP3A4 expressed in HEK293 cells using fluorogenic dibenzylfluorescein as substrate preincubated for 30 mins followed by substrate addition measured for 60 mins by fluorescence assay. The data set is classed as ADME, cell-based.
Chain of Cytochrome P450 3A4 (P08684 whole entry): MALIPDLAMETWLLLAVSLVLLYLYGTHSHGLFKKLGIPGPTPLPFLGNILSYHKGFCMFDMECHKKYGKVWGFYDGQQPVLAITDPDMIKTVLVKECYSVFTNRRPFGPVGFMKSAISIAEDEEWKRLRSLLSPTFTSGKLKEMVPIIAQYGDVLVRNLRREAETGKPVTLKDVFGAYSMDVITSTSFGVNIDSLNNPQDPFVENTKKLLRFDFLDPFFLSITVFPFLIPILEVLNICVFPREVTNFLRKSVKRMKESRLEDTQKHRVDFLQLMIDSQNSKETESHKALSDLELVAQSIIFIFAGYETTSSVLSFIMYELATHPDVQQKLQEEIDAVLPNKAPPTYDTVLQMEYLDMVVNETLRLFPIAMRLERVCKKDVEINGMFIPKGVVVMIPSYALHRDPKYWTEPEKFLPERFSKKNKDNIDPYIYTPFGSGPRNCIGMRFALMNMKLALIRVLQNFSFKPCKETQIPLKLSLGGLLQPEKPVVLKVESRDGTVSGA

Chain of Cytochrome P450 2C9 (P11712 whole entry): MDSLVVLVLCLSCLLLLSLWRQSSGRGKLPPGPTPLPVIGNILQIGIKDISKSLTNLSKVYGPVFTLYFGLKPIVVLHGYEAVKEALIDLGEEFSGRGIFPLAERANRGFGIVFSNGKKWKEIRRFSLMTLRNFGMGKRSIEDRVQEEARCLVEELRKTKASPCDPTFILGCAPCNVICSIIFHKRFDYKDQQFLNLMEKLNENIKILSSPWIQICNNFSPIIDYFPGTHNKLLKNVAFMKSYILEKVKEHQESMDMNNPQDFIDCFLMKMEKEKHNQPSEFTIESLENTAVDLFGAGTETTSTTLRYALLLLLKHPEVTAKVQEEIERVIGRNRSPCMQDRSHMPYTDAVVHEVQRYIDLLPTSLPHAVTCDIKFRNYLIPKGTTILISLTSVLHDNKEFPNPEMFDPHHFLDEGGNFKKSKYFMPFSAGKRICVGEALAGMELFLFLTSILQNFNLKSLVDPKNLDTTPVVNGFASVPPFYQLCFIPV
Chain of Cytochrome P450 2D6 (P10635 whole entry): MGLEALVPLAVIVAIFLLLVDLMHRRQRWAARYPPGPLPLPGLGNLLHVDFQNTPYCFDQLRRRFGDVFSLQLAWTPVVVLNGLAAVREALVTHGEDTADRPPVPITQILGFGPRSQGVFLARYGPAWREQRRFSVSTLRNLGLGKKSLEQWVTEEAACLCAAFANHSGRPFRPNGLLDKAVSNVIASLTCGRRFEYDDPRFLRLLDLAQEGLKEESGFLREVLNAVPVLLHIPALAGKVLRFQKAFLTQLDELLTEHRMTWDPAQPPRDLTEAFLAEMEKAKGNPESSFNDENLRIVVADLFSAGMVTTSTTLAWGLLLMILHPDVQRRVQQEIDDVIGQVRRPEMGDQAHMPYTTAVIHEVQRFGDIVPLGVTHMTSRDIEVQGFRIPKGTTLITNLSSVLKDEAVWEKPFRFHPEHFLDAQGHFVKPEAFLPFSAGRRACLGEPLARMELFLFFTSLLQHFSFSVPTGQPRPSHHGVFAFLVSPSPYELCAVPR

A word on the pIC50: it is the IC50 on a negative log10 scale, so that one unit is a factor of ten. A lower pIC50 goes with a high IC50. As to `O=C(/C=C/c1ccccc1Cl)c1ccc[nH]1`, in data set [1], the Activity is recorded as 455 U. Further, the pIC50 on Cytochrome P450 1B1 [2] is 6.70; at Cytochrome P450 1A2 [3], 6.15; on Cytochrome P450 2D6, 4.92; at Cytochrome P450 2C9, less than 4.70; at Cytochrome P450 1A1 it was less than 4.70; against Cytochrome P450 1B1 [4] it was 6.60. For the same compound, the pIC50 is 6.05 at Cytochrome P450 1A2 [5] and less than 5.00 against Cytochrome P450 3A4.
`COc1ccccc1/C=C/C(=O)c1ccc[nH]1`: in data set [1], the Activity came out at 150 U. Besides, the pIC50 against Cytochrome P450 1B1 [2] was 6.05; at Cytochrome P450 1A2 [3], 5.96; on Cytochrome P450 2D6 it was 4.70; against Cytochrome P450 2C9 it was less than 4.70; against Cytochrome P450 1A1, 5.92; at Cytochrome P450 1B1 [4] it was 5.92. Moreover, the pIC50 against Cytochrome P450 1A2 [5] is 5.96; on Cytochrome P450 3A4, less than 5.00.
In the case of `O=C(/C=C/c1ccc(OC(F)(F)F)cc1)c1ccc[nH]1`, the Activity in [1] came to 955 U. Besides, the pIC50 on Cytochrome P450 1B1 [2] was less than 4.70; at Cytochrome P450 1A2 [3], less than 4.70; against Cytochrome P450 2D6, 4.80; against Cytochrome P450 2C9, less than 4.70; against Cytochrome P450 1A1 it was less than 4.70; on Cytochrome P450 1B1 [4], less than 4.70. Further, the pIC50 against Cytochrome P450 1A2 [5] and against Cytochrome P450 3A4 was less than 4.70 each time.
